Results as given in US10888544B2, “Methods for treating Gaucher disease” (Genzyme Corporation, priority 2017, dated 2021).
Several values for one entry are separate records, joined by “and”; a condition that tells them apart may be missing. Equal entries are not always repeated. Where two headings read alike, the source gives them in different places.

Test: Single oral dose pharmacokinetic study of eliglustat tartrate in mild or moderate hepatic impairment and matched healthy subjects (Example 1)
Type: in vivo, human
Details: for AUC(0-inf) / AUC(0-t) / Cmax / Vd/F / Tmax: human, 100 mg
Protocol: A multi-center, open-label, single oral dose study of eliglustat tartrate administered to mild or moderate HI and normal hepatic function (healthy) matched (by body weight and cytochrome P450 [CYP] 2D6 phenotype) subjects was carried out to study the effect of mild and moderate hepatic impairment (HI) on the pharmacokinetics (PK) of eliglustat.
Approximately 8 subjects were planned to be enrolled into each HI group (mild or moderate HI) and 8 subjects with normal hepatic function matched to impaired subjects by weight and CYP2D6 phenotype. At least 6 CYP2D6 extensive metabolizers (EMs) were to be enrolled into each impairment group, with the remaining 2 subjects enrolled according to the following preference: at least 20 subjects were to be screened for each impairment group and if identified, up to 2 CYP2D6 poor metabolizers (PMs) were enrolled. If less than 2 PMs were identified, up to 2 CYP2D6 intermediate metabolizers (IMs) were to be enrolled for a total of 8 subjects per group. If less than 2 PMs or IMs were identified, up to 2 additional EMs were to be enrolled for a total of 8 subjects per group. If 2 PMs were identified prior to screening 20 subjects, screening may have been discontinued. If an eligible PM subject was identified after satisfying the above requirements and enrolling 8 subjects for an impairment group, this subject may still have been enrolled for that impairment group.
CYP2D6 EMs and IMs were to receive a single 100-mg dose of eliglustat tartrate, while CYP2D6 PMs were to receive a single 50-mg dose of eliglustat tartrate.
For HI subjects: Male (body weight between 50.0 and 125.0 kg, inclusive) or female subjects (body weight between 40.0 and 110.0 kg, inclusive) between 18 and 79 years, inclusive, with a body mass index between 18.0 and 37 kg/m^2, inclusive; having stable chronic liver disease assessed by medical history, physical examination, and laboratory values; with moderate HI (defined as Child-Pugh score of 7 to 9, inclusive) or mild HI (defined as Child-Pugh score of 5 to 6, inclusive). For healthy subjects: Male or female subjects, between 18 and 79 years, inclusive; body weight within 15% of the body weight of matched subjects with HI, and body mass index between 18.0 and 37 kg/m^2, inclusive; healthy subjects were also matched to HI groups by CYP2D6 phenotype predicted from genotype.
A single 100-mg capsule of eliglustat tartrate (equivalent to 84 mg of eliglustat) was administered to CYP2D6 EM or IM subjects with mild or moderate HI and matching healthy subjects.
Pharmacokinetics: The following PK parameters were calculated for eliglustat plasma concentrations using noncompartmental methods: Maximum plasma concentration observed (Cmax), area under the plasma concentration versus time curve calculated using the trapezoidal method from time zero to the time corresponding to the last quantifiable concentration tlast (AUClast), time to reach Cmax(tmax), area under the plasma concentration versus time curve extrapolated to infinity (AUC), terminal half-life associated with the terminal slope λz (t1/2z), time corresponding to the last concentration above the limit of quantification (tlast), apparent total body clearance of a drug from the plasma (CL/F), and apparent volume of distribution during the terminal (λz) phase (Vz/F).
Blood samples were collected at the following timepoints to assess plasma concentrations of eliglustat: predose and 0.5, 1, 1.5, 2, 2.5, 3, 4, 6, 8, 10, 12, 24, 36, and 48 hours postdose.
Eliglustat concentrations in plasma were determined using a validated liquid chromatography-tandem mass spectrometry method with a lower limit of quantification of 0.2 ng/mL.
Eliglustat PK parameters were summarized using descriptive statistics for each population group and for each CYP2D6 phenotype. […]

[1] = CYP2D6 EM, healthy, N=7, single 100 mg eliglustat tartrate oral, plasma
[2] = CYP2D6 EM, mild HI, N=6, single 100 mg eliglustat tartrate oral, plasma
[3] = CYP2D6 EM, moderate HI, N=7, single 100 mg eliglustat tartrate oral, plasma
[4] = CYP2D6 IM, healthy, N=1, single 100 mg eliglustat tartrate oral, plasma
[5] = CYP2D6 IM, mild HI, N=2, single 100 mg eliglustat tartrate oral, plasma
[6] = CYP2D6 IM, moderate HI, N=1, single 100 mg eliglustat tartrate oral, plasma
[7] = Mild HI vs Healthy, CYP2D6 EM subjects, single 100 mg eliglustat tartrate
[8] = Moderate HI vs Healthy, CYP2D6 EM subjects, single 100 mg eliglustat tartrate

With `CCCCCCCC(=O)N[C@H](CN1CCCC1)[C@H](O)c1ccc2c(c1)OCCO2` [eliglustat, N-((1R,2R)-1-(2,3-dihydrobenzo[b][1,4]dioxin-6-yl)-1-hydroxy-3-(pyrrolidin-1-yl)propan-2-yl)octanamide] the “CL/F, geometric mean” value [1] was “(1420) [40.1] L/h”, the “CL/F, mean ± SD” value [1] was 1570 ± 628 L/h and the “t1/2z, geometric mean” value [1] was “(7.03) [12.5] h”. The “t1/2z, mean ± SD” value [1] was 7.08 h and 7.08 ± 0.881 h, the “tlast, median” value [1] was 24.00 h and the “CL/F, geometric mean” value [2] was “(1230) [72.8]^ L/h”. The “CL/F, mean ± SD” value [2] was 1980 ± 1440 L/h, the “t1/2z, geometric mean” value [2] was “(7.13) [20.1] h” and the “t1/2z, mean ± SD” value [2] was 7.25 ± 1.46 h. The “tlast, median” value [2] was 30.00 h, the “CL/F, geometric mean” value [3] was “(275) [70.9] L/h” and the “CL/F, mean ± SD” value [3] was 416 ± 295 L/h. The “t1/2z, geometric mean” value [3] was “(10.3) [21.4]^ h”, the “t1/2z, mean ± SD” value [3] was 10.5 h and 10.5 ± 2.25 h and the “tlast, median” value [3] was 48.00 h. For the same molecule, the CL/F [4] was 146 L/h, the t1/2z [4] was 8.48 h and the tlast [4] was 48.00 h. The “CL/F, mean” value [5] was 306 L/h, the “t1/2z, mean” value [5] was 9.34 h and the tlast [5] was 48.00 h. It also gave a CL/F [6] of 406 L/h, a t1/2z [6] of 5.87 h and a tlast [6] of 24.00 h. For the same molecule, the “AUC geometric mean ratio, point estimate” value [7] was 1.15, the “AUClast geometric mean ratio, point estimate” value [7] was 1.18 and the “CL/F geometric mean ratio, point estimate” value [7] was 0.87. The “Cmax geometric mean ratio, point estimate” value [7] was 1.22, the “Vz/F geometric mean ratio, point estimate” value [7] was 0.88 and the “AUC geometric mean ratio, point estimate” value [8] was 5.16. For the same molecule, the “AUClast geometric mean ratio, point estimate” value [8] was 5.35, the “CL/F geometric mean ratio, point estimate” value [8] was 0.19 and the “Cmax geometric mean ratio, point estimate” value [8] was 2.81. For the same molecule, the “Vz/F geometric mean ratio, point estimate” value [8] was 0.28, the “t1/2z geometric mean ratio, point estimate” value [8] was 1.47 and the AUC(0-inf) (both sexes, plasma, oral, CYP2D6 IM, healthy, N=1, single 100 mg eliglustat tartrate oral, plasma, read-out: AUC (extrapolated to infinity)) was 0.578 µg·h/mL. It also gave an AUC(0-inf) (both sexes, plasma, oral, CYP2D6 IM, mild HI, N=2, single 100 mg eliglustat tartrate oral, plasma, read-out: AUC (extrapolated to infinity), mean) of 0.346 µg·h/mL, an AUC(0-t) (both sexes, plasma, oral, CYP2D6 IM, mild HI, N=2, single 100 mg eliglustat tartrate oral, plasma, read-out: AUClast, mean) of 0.334 µg·h/mL and a Cmax (both sexes, plasma, oral, CYP2D6 IM, mild HI, N=2, single 100 mg eliglustat tartrate oral, plasma, read-out: Cmax, mean) of 0.0359 µg/mL. The Vd/F (both sexes, plasma, oral, CYP2D6 IM, mild HI, N=2, single 100 mg eliglustat tartrate oral, plasma, read-out: Vz/F, mean) was 3910 L, the Tmax (both sexes, plasma, oral, CYP2D6 IM, mild HI, N=2, single 100 mg eliglustat tartrate oral, plasma, read-out: tmax) was 2 h and the AUC(0-inf) (both sexes, plasma, oral, CYP2D6 IM, moderate HI, N=1, single 100 mg eliglustat tartrate oral, plasma, read-out: AUC (extrapolated to infinity)) was 0.208 µg·h/mL. The AUC(0-inf) (both sexes, plasma, po, CYP2D6 EM, healthy, N=7, single 100 mg eliglustat tartrate oral, plasma, read-out: AUC (extrapolated to infinity), geometric mean) was 0.0595 µg·h/mL, the AUC(0-inf) (both sexes, plasma, po, CYP2D6 EM, healthy, N=7, single 100 mg eliglustat tartrate oral, plasma, read-out: AUC (extrapolated to infinity), mean ± SD) was 0.069 ± 0.0491 µg·h/mL and the AUC(0-t) (both sexes, plasma, po, CYP2D6 EM, healthy, N=7, single 100 mg eliglustat tartrate oral, plasma, read-out: AUClast, geometric mean) was 0.0547 µg·h/mL. The AUC(0-t) (both sexes, plasma, po, CYP2D6 EM, healthy, N=7, single 100 mg eliglustat tartrate oral, plasma, read-out: AUClast, mean ± SD) was 0.0639 ± 0.0471 µg·h/mL, the Cmax (both sexes, plasma, po, CYP2D6 EM, healthy, N=7, single 100 mg eliglustat tartrate oral, plasma, read-out: Cmax, geometric mean) was 0.00881 µg/mL and the Cmax (both sexes, plasma, po, CYP2D6 EM, healthy, N=7, single 100 mg eliglustat tartrate oral, plasma, read-out: Cmax, mean ± SD) was 0.0104 ± 0.0074 µg/mL. The Vd/F (both sexes, plasma, po, CYP2D6 EM, healthy, N=7, single 100 mg eliglustat tartrate oral, plasma, read-out: Vz/F, geometric mean) was 14400 L, the Vd/F (both sexes, plasma, po, CYP2D6 EM, healthy, N=7, single 100 mg eliglustat tartrate oral, plasma, read-out: Vz/F, mean ± SD) was 16000 ± 6020 L and the Tmax (both sexes, plasma, po, CYP2D6 EM, healthy, N=7, single 100 mg eliglustat tartrate oral, plasma, read-out: tmax, median) was 2.5 h. The AUC(0-inf) (both sexes, plasma, po, CYP2D6 EM, mild HI, N=6, single 100 mg eliglustat tartrate oral, plasma, read-out: AUC (extrapolated to infinity), geometric mean) was 0.0685 µg·h/mL, the AUC(0-inf) (both sexes, plasma, po, CYP2D6 EM, mild HI, N=6, single 100 mg eliglustat tartrate oral, plasma, read-out: AUC (extrapolated to infinity), mean ± SD) was 0.172 ± 0.293 µg·h/mL and the AUC(0-t) (both sexes, plasma, po, CYP2D6 EM, mild HI, N=6, single 100 mg eliglustat tartrate oral, plasma, read-out: AUClast, geometric mean) was 0.0643 µg·h/mL. For the same molecule, the AUC(0-t) (both sexes, plasma, po, CYP2D6 EM, mild HI, N=6, single 100 mg eliglustat tartrate oral, plasma, read-out: AUClast, mean ± SD) was 0.166 ± 0.285 µg·h/mL, the Cmax (both sexes, plasma, po, CYP2D6 EM, mild HI, N=6, single 100 mg eliglustat tartrate oral, plasma, read-out: Cmax, geometric mean) was 0.0107 µg/mL and the Cmax (both sexes, plasma, po, CYP2D6 EM, mild HI, N=6, single 100 mg eliglustat tartrate oral, plasma, read-out: Cmax, mean ± SD) was 0.0224 ± 0.0302 µg/mL. For the same molecule, the Vd/F (both sexes, plasma, po, CYP2D6 EM, mild HI, N=6, single 100 mg eliglustat tartrate oral, plasma, read-out: Vz/F, geometric mean) was 12700 L, the Vd/F (both sexes, plasma, po, CYP2D6 EM, mild HI, N=6, single 100 mg eliglustat tartrate oral, plasma, read-out: Vz/F, mean ± SD) was 20000 ± 15600 L and the Tmax (both sexes, plasma, po, CYP2D6 EM, mild HI, N=6, single 100 mg eliglustat tartrate oral, plasma, read-out: tmax, median) was 1.75 h. It also gave an AUC(0-inf) (both sexes, plasma, po, CYP2D6 EM, moderate HI, N=7, single 100 mg eliglustat tartrate oral, plasma, read-out: AUC (extrapolated to infinity), geometric mean) of 0.307 µg·h/mL, an AUC(0-inf) (both sexes, plasma, po, CYP2D6 EM, moderate HI, N=7, single 100 mg eliglustat tartrate oral, plasma, read-out: AUC (extrapolated to infinity), mean ± SD) of 0.575 ± 0.696 µg·h/mL and an AUC(0-t) (both sexes, plasma, po, CYP2D6 EM, moderate HI, N=7, single 100 mg eliglustat tartrate oral, plasma, read-out: AUClast, geometric mean) of 0.293 µg·h/mL. For the same molecule, the AUC(0-t) (both sexes, plasma, po, CYP2D6 EM, moderate HI, N=7, single 100 mg eliglustat tartrate oral, plasma, read-out: AUClast, mean ± SD) was 0.536 ± 0.642 µg·h/mL, the Cmax (both sexes, plasma, po, CYP2D6 EM, moderate HI, N=7, single 100 mg eliglustat tartrate oral, plasma, read-out: Cmax, geometric mean) was 0.0248 µg/mL and the Cmax (both sexes, plasma, po, CYP2D6 EM, moderate HI, N=7, single 100 mg eliglustat tartrate oral, plasma, read-out: Cmax, mean ± SD) was 0.0395 ± 0.0434 µg/mL. For the same molecule, the Vd/F (both sexes, plasma, po, CYP2D6 EM, moderate HI, N=7, single 100 mg eliglustat tartrate oral, plasma, read-out: Vz/F, geometric mean) was 4090 L, the Vd/F (both sexes, plasma, po, CYP2D6 EM, moderate HI, N=7, single 100 mg eliglustat tartrate oral, plasma, read-out: Vz/F, mean ± SD) was 5840 ± 4130 L and the Tmax (both sexes, plasma, po, CYP2D6 EM, moderate HI, N=7, single 100 mg eliglustat tartrate oral, plasma, read-out: tmax, median) was 4 h. The AUC(0-t) (plasma, oral, CYP2D6 IM, healthy, N=1, single 100 mg eliglustat tartrate oral, plasma, read-out: AUClast) was 0.568 µg·h/mL, the Cmax (plasma, oral, CYP2D6 IM, healthy, N=1, single 100 mg eliglustat tartrate oral, plasma, read-out: Cmax) was 0.0759 µg/mL and the Vd/F (plasma, oral, CYP2D6 IM, healthy, N=1, single 100 mg eliglustat tartrate oral, plasma, read-out: Vz/F) was 1790 L. It also gave a Tmax (plasma, oral, CYP2D6 IM, healthy, N=1, single 100 mg eliglustat tartrate oral, plasma, read-out: tmax) of 2.5 h, an AUC(0-t) (plasma, oral, CYP2D6 IM, moderate HI, N=1, single 100 mg eliglustat tartrate oral, plasma, read-out: AUClast) of 0.197 µg·h/mL and a Cmax (plasma, oral, CYP2D6 IM, moderate HI, N=1, single 100 mg eliglustat tartrate oral, plasma, read-out: Cmax) of 0.0356 µg/mL. The Vd/F (plasma, oral, CYP2D6 IM, moderate HI, N=1, single 100 mg eliglustat tartrate oral, plasma, read-out: Vz/F) was 3430 L and the Tmax (plasma, oral, CYP2D6 IM, moderate HI, N=1, single 100 mg eliglustat tartrate oral, plasma, read-out: tmax) was 1.52 h.
